pIC50: −log10 of the molar value. ≈ marks a conversion by molar mass, not a printed value.
Tests used:
glutathione transferase = biological target: T1, glutathione transferase (Rattus norvegicus, UniProt P04905); test: Glutathione transferase inhibition activity (3,4-dichloronitrobenzene/glutathione, absorption at 345 nm); format: biochemical
T1 construct: obtained from a homogenate of rat liver; from tissue; host or cells: rat liver homogenate, partially purified by DEAE-cellulose column and ammonium sulfate salting-out
T1 sequence (P04905 2-218 limits assumed): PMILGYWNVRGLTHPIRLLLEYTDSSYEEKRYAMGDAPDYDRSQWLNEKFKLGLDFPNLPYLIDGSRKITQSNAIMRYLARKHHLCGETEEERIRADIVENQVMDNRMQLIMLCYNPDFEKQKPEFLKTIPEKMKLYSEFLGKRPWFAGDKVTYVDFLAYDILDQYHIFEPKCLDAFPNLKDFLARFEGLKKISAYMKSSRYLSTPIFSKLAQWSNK
Procedure: The glutathione transferase inhibition activity was determined by a modified method based on the known method described in Biochemical and Biophysical Research Communications, 112, 980-985 (1983).
A test tube was charged with a solution mixture consisting of (a) 0.1 ml of 90 mM glutathione (reduction type), (b) 0.05 ml of 20 mM 3,4-dichloronitrobenzene, (c) 1.7 ml of 0.1M potassium phosphate buffer solution (pH 7.4) and (d) 0.1 ml of an aqueous solution containing the test compound. The solution mixture was heated to 37° C. for 3 minutes, and admixed with 0.05 ml of a glutathione transferase solution to effect a reaction at 37° C. for 30 minutes. The glutathione transferase solution employed was one which had been obtained from a homogenate of rat liver and which had been patially refined by means of a DEAE-cellulose column and of salting out-operation with ammonium sulfate.
After the completion of the reaction, the sample was measured for the light absorption (a) at 345 nm. At the same time, a control sample which was free of the test compound and which contained only the buffer solution was measured for the light absorption (b) at 345 nm.
The glutathione transferase inhibition activity was determined according to the formula: […]
IC50, which is the concentration of a test compound required for 50% inhibition, was recorded.

[1] = test system: murine spleen cells (LPS-induced lymphocyte blastogenesis); test: Effect on LPS-induced murine lymphocyte blastogenesis in vitro (Test 4); format: cell-based, BALB/c mouse
Procedure: (§1) In lymphocyte blast formation reaction, use was made of benastatin B as a solution prepared in a manner, wherein benastatin B was dissolved in methanol and admixed with PBS(-), with the proviso that the concentration of methanol in the final solution was 0.5%.
(§2) (a) Effect on lymphocyte blast formation reaction
(§3) For the cultivation, use was made of RPMI 1640 culture medium supplemented with 20% bovine fetus serum, 25 mM Hepes buffer, 100 μg/ml streptomycin and 100 units/ml penicillin G. The cultivation was carried out in a microplate (COSTAR) with flat bottom and with 96 wells. As the mitogens, lipopolysaccharide (LPS) and concanavalin A (Con A) were used at the final concentrations of 100 μg/ml and 5 μg/ml, respectively.
(§4) Spleen cells were taken out from BALB/c mouse (female, at most 20 weeks old) to prepare a unicellular dispersion of spleen cells. This dispersion was subjected to a hyper shock treatment to remove erythrocytes therefrom. The resulting spleen cell sample was directly used in the test employing LPS. Alternatively, the spleen cell sample was filtered through Nylon Fiber (manufactured by Wako Jun-yaku Co., Ltd.) for removing […] therefrom, and then the cell sample was used in the test employing Con A.
(§5) Each well was charged with 0.2 ml of a test sample containing 2×10^5 murine spleen cells and the test compound at a predetermined concentration. The cultivation was effected for 72 hours. Before 8 hours from the termination of the cultivation, the wells each were charged with 37 KBq of [^3 H]-thymidine in order to determine the amount of thymidine taken into the cells. The effect of the test compound was estimated by comparing the test samples with the control samples, with respect to the amount of [^3 H]-thymidine taken into the cells.

[2] = test system: murine spleen cells (Con A-induced lymphocyte blastogenesis); test: Effect on Con A-induced murine lymphocyte blastogenesis in vitro (Test 4); format: cell-based, BALB/c mouse; conditions: Mus musculus, 72 h
Procedure: as §1, §2, §3, §4, §5

[3] = test system: graft versus host reaction (GvH); test: Effect on graft versus host reaction (GvH) in vivo; parameters: species or system mouse (C57BL/6 spleen cells into BDF1 mouse); conditions: for Spleen/body weight / Index (spleen/body weight; non induced = 1.00): subcutaneous, 3 days, day 7; for Index (spleen/body weight; non induced = 1.00): induced = 1.84
Description: In the graft versus host reaction (GvH), use was made of benastatin B dissolved in physiological saline.
(b) Effect on graft versus host reaction (GvH)
The effect on GvH was estimated according to a modified method based on the method described in M. Simonsen et al, "A study of the graft versus host reaction in transplantation to embryos, F1 hybrids, and irradiated animals", Ann. N.Y. Acad. Sci., 73, 834-841 ([…]).
Spleen cells were taken out from C57BL/6 mouse (female, 10 weeks old) to prepare a murine spleen cell sample containing 5×10^6 spleen cells according to the method as mentioned above. The spleen cell sample was transplanted into the abdominal cavity of BDF1 mouse (7 days old) as the F1 acceptor. The test compound at a predetermined concentration was subcutaneously injected over a period of time of 3 days including the initial day of said transplantation. After 7 days from the inital transplantation, measurements were made about the body weight and the spleen weight of the BDF1 mouse to calculate the ratio (mg/g) of spleen weight (mg) to body weight (g).

mouse = test: Toxicity on administration to the abdominal cavity; format: in vivo; conditions: 100 mg/kg
Description: Benastatins A and B were each administered to the abdominal cavity of a mouse to examine the toxicity thereof.

[4] = test system: Bacillus cereus ATCC10702; test: Agar dilution assay, minimum growth inhibition concentration; format: cell-based
Procedure: (§6) The minimum of microorganism growth inhibition concentrations of benastatins A and B were determined for various bacteria, east and fungi according to a conventional agar dilution assay method. It will be seen from Table 1 that benastatins A and B have a satisfactory antimicrobial activity, particularly against gram-positive bacteria, etc.

[5] = test system: Bacillus subtilis NRRL B-558; test: as above; format: cell-based; conditions: NRRLB558
Procedure: as §6

Cochliobolus miyabeanus = test: as above; format: cell-based; conditions: Bipolaris oryzae
Procedure: as §6

[6] = test system: Corynebacterium bovis 1810; test: as above; format: cell-based
Procedure: as §6

[7] = test system: Cryptococcus neoformans F-10; test: as above; format: cell-based; conditions: F10
Procedure: as §6

Micrococcus luteus FDA16 = test: as above; format: cell-based
Procedure: as §6

[8] = test system: Staphylococcus aureus MS9610; test: as above; format: cell-based
Procedure: as §6

[9] = test system: Staphylococcus aureus Smith; test: as above; format: cell-based
Procedure: as §6

[10] = test system: Staphylococcus aureus No. 5 (MRSA); test: as above; format: cell-based; conditions: read-out: Minimum growth-inhibition concentration
[11] = test system: Staphylococcus aureus No. 17 (MRSA); test: as above; format: cell-based; conditions: read-out: Minimum growth-inhibition concentration
Escherichia coli NIHJ = test: as above; format: cell-based; conditions: Escherichia coli, read-out: Minimum growth-inhibition concentration
[12] = test system: Shigella dysenteriae JS11910; test: as above; format: cell-based; conditions: JS11910, read-out: Minimum growth-inhibition concentration
Salmonella typhi T-63 = test: as above; format: cell-based; conditions: Salmonella enterica
Proteus rettgeri GN311 = test: as above; format: cell-based; conditions: Providencia rettgeri, GN311, read-out: Minimum growth-inhibition concentration
[13] = test system: Pseudomanas aeruginosa A3; test: as above; format: cell-based; conditions: read-out: Minimum growth-inhibition concentration
[14] = test system: Klebsiella pneumoniae PCI602; test: as above; format: cell-based; conditions: Klebsiella pneumoniae, PCI602, read-out: Minimum growth-inhibition concentration
[15] = test system: Mycabacterium smegmatis ATCC607; test: as above; format: cell-based; conditions: read-out: Minimum growth-inhibition concentration
Candida tropicalis F-1 = test: as above; format: cell-based; conditions: Candida tropicalis, F1, read-out: Minimum growth-inhibition concentration
[16] = test system: Saccharomyces cerevisiae F-7; test: as above; format: cell-based; conditions: Saccharomyces cerevisiae, F7, read-out: Minimum growth-inhibition concentration
Pyricularia oryzae = test: microbe, parasite or virus in culture; format: cell-based; conditions: read-out: Minimum growth-inhibition concentration
Aspergillus niger F-16 = test: Agar dilution assay, minimum growth inhibition concentration; format: cell-based; conditions: Aspergillus niger, F16, read-out: Minimum growth-inhibition concentration
[17] = Mus musculus, Lymphocyte, 72 h, read-out: Stimulation index LPS
[18] = read-out: Stimulation index Con A

Structure (SMILES): CCCCCc1cc2c(c(O)c1C(=O)O)-c1cc3c(c(O)c1CC2)C(=O)c1c(O)cc(O)cc1C3(C)C [Benastatin B, benastatin B]
- pIC50 (glutathione transferase): 5.74
- activity at 6.25 µg/mL [1, 17]: 138%
- activity at 12.5 µg/mL [1, 17]: 58.9%
- activity at 50 µg/mL [1, 17]: 0.4%
- activity at 3.13 µg/mL ([1]; Mus musculus, Lymphocyte, 72 h, 3.13 μg/ml, control = 100, read-out: Stimulation index LPS): 148%
- activity at 25 µg/mL ([1]; Mus musculus, Lymphocyte, 72 h, 25 μg/ml, control = 100, read-out: Stimulation index LPS): 0.2%
- activity at 100 µg/mL ([1]; Mus musculus, Lymphocyte, 72 h, 100 μg/ml, control = 100, read-out: Stimulation index LPS): 0.2%
- minimal effective concentration ([1]; Mus musculus, Lymphocyte, 72 h, read-out: concentration that significantly suppresses LPS-induced lymphocyte blast formation): ≥ 12.5 µg/mL
- effect on LPS-induced lymphocyte blast formation at a low concentration ([1]; low concentration): potentiates
- activity at 3.13 µg/mL ([2]; 3.13 μg/ml, control = 100, read-out: Stimulation index Con A): 106%
- activity at 25 µg/mL ([2]; 25 μg/ml, control = 100, read-out: Stimulation index Con A): 1%
- activity at 100 µg/mL ([2]; 100 μg/ml, control = 100, read-out: Stimulation index Con A): 0.9%
- activity at 6.25 µg/mL [2, 18]: 12.6%
- activity at 12.5 µg/mL [2, 18]: 26.8%
- activity at 50 µg/mL [2, 18]: 1%
- minimal effective concentration ([2]; read-out: concentration that significantly suppresses Con A-induced lymphocyte blast formation): ≥ 6.25 µg/mL
- Spleen/body weight ([3]; 0.5 mg/kg): 12.5 ± 2.2 mg/kg
- Index (spleen/body weight; non induced = 1.00) ([3]; 0.5 mg/kg): 2.78
- Spleen/body weight ([3]; 5 mg/kg): 11.5 ± 0.8 mg/kg
- Index (spleen/body weight; non induced = 1.00) ([3]; 5 mg/kg): 2.56
- Spleen/body weight ([3]; 50 mg/kg): 10.6 ± 1.3 mg/kg
- Index (spleen/body weight; non induced = 1.00) ([3]; 50 mg/kg): 2.36
- effect on GvH ([3]; various amounts, strongest in a lower amount): significantly promotes GvH
- Toxicity (mouse): No toxicity was observed
- MIC [4]: 3.12 µg/mL (≈ 6.21 µM)
- MIC [5]: 3.12 µg/mL (≈ 6.21 µM)
- MIC (Cochliobolus miyabeanus): > 25 µg/mL
- MIC [6]: 3.12 µg/mL (≈ 6.21 µM)
- MIC [7]: 50 µg/mL (≈ 99.5 µM)
- MIC (Micrococcus luteus FDA16): 3.12 µg/mL (≈ 6.21 µM)
- MIC [8]: 3.12 µg/mL (≈ 6.21 µM)
- MIC [9]: 3.12 µg/mL (≈ 6.21 µM)
- MIC [10]: 3.12 µg/mL (≈ 6.21 µM)
- MIC [11]: 3.12 µg/mL (≈ 6.21 µM)
- MIC (Escherichia coli NIHJ): 100 µg/mL (≈ 199 µM)
- MIC [12]: > 50 µg/mL
- MIC (Salmonella typhi T-63): > 50 µg/mL
- MIC (Proteus rettgeri GN311): 50 µg/mL (≈ 99.5 µM)
- MIC [13]: 50 µg/mL (≈ 99.5 µM)
- MIC [14]: > 50 µg/mL
- MIC [15]: 12.5 µg/mL (≈ 24.9 µM)
- MIC (Candida tropicalis F-1): > 50 µg/mL
- MIC [16]: > 50 µg/mL
- MIC (Pyricularia oryzae): 50 µg/mL (≈ 99.5 µM)
- MIC (Aspergillus niger F-16): > 100 µg/mL
